Assay results reported in patent US9045491B2, “Thienyl [3,2-D] pyrimidin-4-one compounds, preparation method, pharmaceutical compositions and use thereof” (SHANGHAI INSTITUTE OF MATERIA MEDICA, CHINESE ACADEMY OF …, priority 2011, dated 2015).

How the values were obtained:
normal ICR mouse = assay: Oral glucose tolerance test (OGTT), acute hypoglycemic effect of single oral dose; assay type: in vivo; details: for hypoglycemic ability in vivo, oral glucose tolerance test: single dose 3 mg/kg by gavage, glucose 2.5 g/kg after 6 hours, FIGS. 7-10
Protocol: Acute hypoglycemic effect of single dose through mouth on the normal ICR mouse
Animal: ICR mouse (8-10 weeks old, sex: male, weight: 25-30 g, purchased from Shanghai SLAC Laboratory Animal Center).
1. Two days before the experiment, the food consumption was recorded and the daily food consumption of each animal was calculated;
2. The animals fasted overnight (⅓ of daily food consumption was provided, about 2 g);
3. The blood glucose was measured on the second day.
4. The medicament was administrated through gavage (1 mouse/min). After 6 hours, the blood glucose was measured. Glucose was administrated through gavage according to the body weight (2.5 g/kg). The blood glucose value was monitored at 30 min, 60 min, 90 min, and 120 min after administration.

[1] = Safety evaluation: single dose 100 mg/kg by gavage, one week observation; assay type: in vivo, ICR mouse; details: for body weight and viscera index versus normal control group (in words) / acute toxicity / kidney index versus normal control group (in words): ICR mouse; for body weight and viscera index versus normal control group (in words) / Kidney index / Liver index / Spleen index / body weight / food consumption: 100 mg/kg single dose; for acute toxicity: 100 mg/kg single dose by gavage, one week; for kidney index versus normal control group (in words): 100 mg/kg, 7th day after administration; for Kidney index / Liver index / Spleen index / body weight / food consumption: normal ICR mouse; for Kidney index / Liver index / Spleen index: 7th day
Protocol: After grouping, each compound was administrated once through gavage according to the dose of 100 mg/kg at the same time.

DPP IV = biological target: T1, DPP IV (Mus musculus, UniProt P28843); assay: DPP IV inhibitory activity in vivo: DPP IV activity in plasma of ICR mouse after single oral dose; details: oral 3 mg/kg, compared with Alogliptin and Vildagliptin (LAF237), FIG. 1-6
T1 construct: from tissue; host or cells: plasma of ICR mouse
Protocol: Animals: ICR mouse (8-10 weeks old; sex: male; 25 g-30 g of body weight, purchased from Shanghai SLAC Laboratory Animal Center).
Meanwhile the solvent group was used as blank control. The blood was taken from orbital venous plexus of the mouse before administration, and 30, 60, 2 h, 4 h, 6 h, 8 h and […] after administration, respectively and loaded into Eppendorf tube (Qizhong Industrial (Shanghai) co., Ltd.) treated by anticoagulant. The plasma was obtained by centrifugation and DPP IV activity was determined.

T1 sequence (P28843 37-760 limits assumed): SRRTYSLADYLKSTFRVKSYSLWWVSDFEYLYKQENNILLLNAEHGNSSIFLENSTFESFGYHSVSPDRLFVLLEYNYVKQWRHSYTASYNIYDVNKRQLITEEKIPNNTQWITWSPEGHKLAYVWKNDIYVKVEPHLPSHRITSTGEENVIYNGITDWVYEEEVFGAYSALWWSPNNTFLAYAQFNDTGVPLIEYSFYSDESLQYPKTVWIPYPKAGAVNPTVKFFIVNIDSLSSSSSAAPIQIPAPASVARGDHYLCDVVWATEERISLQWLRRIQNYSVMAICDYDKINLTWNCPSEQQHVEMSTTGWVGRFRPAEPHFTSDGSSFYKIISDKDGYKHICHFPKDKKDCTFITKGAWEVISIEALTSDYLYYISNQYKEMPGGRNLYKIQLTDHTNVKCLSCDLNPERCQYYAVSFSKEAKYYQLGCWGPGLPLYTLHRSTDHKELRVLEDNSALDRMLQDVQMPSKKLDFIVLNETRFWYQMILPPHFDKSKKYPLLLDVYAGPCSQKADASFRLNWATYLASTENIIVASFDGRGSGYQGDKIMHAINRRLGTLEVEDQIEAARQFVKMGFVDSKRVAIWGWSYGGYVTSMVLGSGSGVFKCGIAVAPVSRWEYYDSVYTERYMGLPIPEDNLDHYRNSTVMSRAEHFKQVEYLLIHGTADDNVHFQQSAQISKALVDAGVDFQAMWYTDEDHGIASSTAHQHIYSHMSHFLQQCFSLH

| SMILES | hypoglycemic ability in vivo, oral glucose tolerance test (normal ICR mouse) | body weight and viscera index versus normal control group (in words) [1] | acute toxicity [1] | kidney index versus normal control group (in words) [1] | Kidney index [1] [%] | Liver index [1] [%] | Spleen index [1] [%] | body weight ([1]; 1 d after administration) [g] | food consumption ([1]; 1 d after administration) [g · day^−1 · cage^−1] | body weight ([1]; 2 d after administration) [g] | food consumption ([1]; 2 d after administration) [g · day^−1 · cage^−1] | body weight ([1]; 3 d after administration) [g] | food consumption ([1]; 3 d after administration) [g · day^−1 · cage^−1] | body weight ([1]; 4 d after administration) [g] | food consumption ([1]; 4 d after administration) [g · day^−1 · cage^−1] | body weight ([1]; 5 d after administration) [g] | food consumption ([1]; 5 d after administration) [g · day^−1 · cage^−1] | body weight ([1]; 6 d after administration) [g] | food consumption ([1]; 6 d after administration) [g · day^−1 · cage^−1] | body weight ([1]; 7 d after administration) [g] | further results |
| --- | --- | --- | --- | --- | --- | --- | --- | --- | --- | --- | --- | --- | --- | --- | --- | --- | --- | --- | --- | --- | --- |
| COC(=O)c1csc2c(=O)n(Cc3ccccc3C#N)c(N3CCC[C@@H](N)C3)nc12 [DC291009] | comparable to that of Alogliptin | no statistical difference | did not reflect obvious acute toxicity | slightly lower than that of normal control group | 1.4 ± 0.1 | 5.3 ± 0.2 | 0.4 ± 0.1 | 31.3 ± 2.0 | 21.2 | 31.5 ± 2.3 | 21.3 | 31.8 ± 2.3 | 22.6 | 32.3 ± 2.2 | 22.8 | 32.4 ± 2.5 | 22.2 | 32.6 ± 2.6 | 21.9 | 33 ± 2.6 | hypoglycemic ability in vivo, oral glucose tolerance test after multiple single-dose administration (normal ICR mouse; single administration at multiple doses, FIGS. 11-12): comparable to that of Alogliptin; food consumption ([1]; 7 d after administration): 23.8 g · day^−1 · cage^−1; body weight ([1]; before administration): 30.8 ± 2.2 g; food consumption ([1]; before administration): 23.3 g · day^−1 · cage^−1; DPP IV activity of ICR mouse plasma after single dose (given as hypoglycemic ability in vivo) (DPP IV): comparable to that of Alogliptin (3 mg), and better than that of Vildagliptin (LAF237, 15 mg) |
| N#Cc1ccccc1Cn1c(N2CCC[C@@H](N)C2)nc2c(CO)csc2c1=O [DC291004] | comparable to that of Alogliptin | no statistical difference | did not reflect obvious acute toxicity | did not significantly differ | 1.5 ± 0.1 | 5.3 ± 0.3 | 0.4 ± 0.0 | 30.3 ± 1.0 | 18.7 | 30.8 ± 0.9 | 21.0 | 31.0 ± 1.2 | 21.1 | 31.6 ± 1.2 | 21.5 | 32.0 ± 1.6 | 21.9 | 32.0 ± 1.2 | 21.5 | 32.5 ± 1.3 | food consumption ([1]; 7 d after administration): 24.1 g · day^−1 · cage^−1; body weight ([1]; before administration): 30.2 ± 0.7 g; food consumption ([1]; before administration): 22.5 g · day^−1 · cage^−1; DPP IV activity of ICR mouse plasma after single dose (given as hypoglycemic ability in vivo) (DPP IV): comparable to that of Alogliptin (3 mg), and better than that of Vildagliptin (LAF237, 15 mg) |
| N#Cc1ccccc1Cn1c(N2CCC[C@@H](N)C2)nc2cc(C(Br)Br)sc2c1=O [DC291411] | comparable to that of Alogliptin | no statistical difference | did not reflect obvious acute toxicity | slightly lower than that of normal control group | 1.4 ± 0.1 | 5.0 ± 0.4 | 0.4 ± 0.0 | 30.5 ± 1.6 | 19.3 | 31.2 ± 1.6 | 21.3 | 31.0 ± 1.7 | 18.8 | 31.5 ± 1.9 | 18.3 | 31.8 ± 1.5 | 17.7 | 31.6 ± 1.8 | 20.5 | 32.1 ± 1.7 | food consumption ([1]; 7 d after administration): 21.9 g · day^−1 · cage^−1; body weight ([1]; before administration): 30 ± 1.5 g; food consumption ([1]; before administration): 20.8 g · day^−1 · cage^−1; DPP IV activity of ICR mouse plasma after single dose (given as hypoglycemic ability in vivo) (DPP IV): comparable to that of Alogliptin (3 mg), and better than that of Vildagliptin (LAF237, 15 mg) |
